From ChEMBL document CHEMBL3352684, “Discovery of MK-3697: a selective orexin 2 receptor antagonist (2-SORA) for the treatment of insomnia” (Bioorg Med Chem Lett, 2014)
≈ marks a conversion by molar mass, not a printed value.

Assays:
Orexin receptor type 2 [1] = target: T1, Orexin receptor type 2 (Homo sapiens, UniProt O43614); assay: Displacement of (S)-N-(2-(1H-pyrrol-1-yl)phenyl)-1-(2-([3H]-1-methyl-1H-benzo[d]imidazol-2-ylthio)acetyl)pyrrolidine-2-carboxamide from human OX2R expressed in CHO cells after 3 hrs by topcount analysis; format: cell-based
T1 sequence (O43614 whole entry): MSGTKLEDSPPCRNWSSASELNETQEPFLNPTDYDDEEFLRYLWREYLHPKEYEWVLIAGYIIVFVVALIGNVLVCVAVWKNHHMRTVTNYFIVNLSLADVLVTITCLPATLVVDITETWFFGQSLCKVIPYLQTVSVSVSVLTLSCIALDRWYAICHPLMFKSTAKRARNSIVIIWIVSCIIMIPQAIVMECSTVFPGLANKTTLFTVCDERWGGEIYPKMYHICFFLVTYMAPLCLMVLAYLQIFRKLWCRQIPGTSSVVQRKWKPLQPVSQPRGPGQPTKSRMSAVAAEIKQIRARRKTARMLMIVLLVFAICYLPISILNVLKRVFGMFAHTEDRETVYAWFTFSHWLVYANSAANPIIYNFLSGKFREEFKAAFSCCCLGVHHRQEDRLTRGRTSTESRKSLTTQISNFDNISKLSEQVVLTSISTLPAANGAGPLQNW

[2] = target: T2, Orexin/Hypocretin receptor type 1 (Homo sapiens, UniProt O43613, I408V); assay: Displacement of N-cyclobutyl-5-methyl-N-(2-([3H]-1-methyl-1H-benzo[d]imidazol-2-ylthio)ethyl)-2-(2H-1,2,3-triazol-2-yl)benzamide from human OX1R I408V mutant expressed in CHO cells by topcount analysis; format: cell-based
Orexin receptor type 2 [3] = target: T1, Orexin receptor type 2; assay: Antagonist activity at human OX2R expressed in CHO cells assessed as inhibition of Ala-6,12-orexinA-induced effect after 5 mins by FLIPR assay; format: cell-based
[4] = target: T2, Orexin/Hypocretin receptor type 1; assay: Antagonist activity at human OX1R I408V mutant expressed in CHO cells assessed as inhibition of Ala-6,12-orexinA-induced effect after 5 mins by FLIPR assay; format: cell-based
CHO [5] = assay: Selectivity ratio of Ki for human OX1R I408V mutant expressed in CHO cells to Ki for human OX2R expressed in CHO cells; format: cell-based
CHO [6] = assay: Selectivity ratio of IC50 for human OX1R Ile408Val mutant expressed in CHO cells to IC50 for human OX2R expressed in CHO cells; format: cell-based
[7] = Clearance in dog with cassette dosing; format: ADME, organism-based, Canis lupus familiaris; conditions: in vivo
CYP3A4 [8] = target: T3, CYP3A4 (Homo sapiens, UniProt P08684); assay: (§1) Time dependent inhibition of CYP3A4 (unknown origin); format: ADME; conditions: human
Cytochrome P450 3A4 = Cytochrome P450 3A4 (Homo sapiens, UniProt P08684); assay: as §1; format: ADME
CYP3A4 [9] = target: T3, CYP3A4; assay: Ratio of Kinact to Ki for CYP3A4 (unknown origin); format: ADME
[10] = Drug degradation in buffer assessed as compound remaining at pH 2 after 24 hrs; format: physicochemical; conditions: for remaining at 24 h: pH 2, read-out: Stability
[11] = Solubility of the compound in buffer at pH 7; format: physicochemical
[12] = Solubility of the compound in buffer at pH 2; format: physicochemical

T2 sequence (O43613 whole entry I408V): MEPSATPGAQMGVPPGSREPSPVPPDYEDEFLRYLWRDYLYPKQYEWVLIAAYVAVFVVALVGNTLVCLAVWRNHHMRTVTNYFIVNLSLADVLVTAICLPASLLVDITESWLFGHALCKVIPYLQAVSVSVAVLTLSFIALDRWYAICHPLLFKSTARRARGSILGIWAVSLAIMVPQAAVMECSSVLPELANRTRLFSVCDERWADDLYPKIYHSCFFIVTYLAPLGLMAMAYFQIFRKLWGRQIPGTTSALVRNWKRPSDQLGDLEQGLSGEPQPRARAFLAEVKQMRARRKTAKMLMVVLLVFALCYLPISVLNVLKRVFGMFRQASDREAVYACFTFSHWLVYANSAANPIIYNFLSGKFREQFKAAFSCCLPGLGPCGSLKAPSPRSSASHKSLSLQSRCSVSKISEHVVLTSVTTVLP
T3 sequence (P08684 whole entry): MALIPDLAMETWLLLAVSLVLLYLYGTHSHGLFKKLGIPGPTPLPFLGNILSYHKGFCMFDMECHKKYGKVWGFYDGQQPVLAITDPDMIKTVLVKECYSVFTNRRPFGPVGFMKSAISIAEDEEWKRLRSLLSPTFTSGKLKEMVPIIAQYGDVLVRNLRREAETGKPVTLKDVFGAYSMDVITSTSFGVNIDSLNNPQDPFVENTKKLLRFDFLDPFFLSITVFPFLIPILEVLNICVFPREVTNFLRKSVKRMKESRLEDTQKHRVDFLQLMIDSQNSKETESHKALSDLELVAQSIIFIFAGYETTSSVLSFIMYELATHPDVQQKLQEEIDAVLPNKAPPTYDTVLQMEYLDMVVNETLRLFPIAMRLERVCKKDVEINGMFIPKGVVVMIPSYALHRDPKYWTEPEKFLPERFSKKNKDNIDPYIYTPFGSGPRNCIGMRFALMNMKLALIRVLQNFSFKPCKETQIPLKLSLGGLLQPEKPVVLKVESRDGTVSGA
Sequence of Cytochrome P450 3A4 (P08684 whole entry): as above

Structure (SMILES) | Ki (Orexin receptor type 2 [1]) [nM] | Ki [2] [nM] | IC50 (Orexin receptor type 2 [3]) [nM] | IC50 [4] [nM] | Ratio Ki (CHO [5]) | Ratio IC50 (CHO [6]) | clearance [7] [mL/min/kg] | kinact (CYP3A4 [8]) [s⁻¹] | Ki (Cytochrome P450 3A4) [nM] | kinact/KI (CYP3A4 [9]) [M⁻¹ s⁻¹] | remaining at 24 h [10] [%] | solubility [11] [µM] | solubility [12] [µM] | Stability ([10]; pH 2, 24 h)
COc1ccc(CNC(=O)c2cc(-c3cncc(C)c3)nnc2-c2ccccc2)nc1OC | 11 | 15000 | 170 | > 10000 | 1360 | > 59 |  |  |  |  |  |  |  | 
COc1ccc(CNC(=O)c2cc(-c3cncc(C)c3)ncc2N2CCC2)nc1OC | 10 | 18000 | 83 | 10000 | 1800 | > 120 | 19 |  |  |  |  |  |  | 
COc1ccc(CNC(=O)c2cc(-c3cncc(Cl)c3)cnc2-c2ccccn2)nc1OC [MK-1064] |  |  |  |  |  |  |  | 0.00183 | 9500 | 200 |  |  |  | 
COc1ccc(CNC(=O)c2cc(-c3cncc(C)c3)ncc2-c2ccccc2F)nc1OC | 1.4 | 8600 | 25 | 3000 | 6140 | 120 | 17 |  |  |  |  |  |  | 
COc1ccc(CNC(=O)c2cc(-c3cncc(C)c3)nc3onc(-c4ccccc4)c23)nc1OC | 9 | 4100 | 420 | > 10000 | 456 | > 24 |  |  |  |  |  |  |  | 
COc1ccc(CNC(=O)c2cc(-c3cncc(C)c3)cnc2-c2ccccc2)nc1OC | 0.3 | 720 | 13 | 2000 | 2400 | 154 | 27 |  |  |  | 100 | 61 (≈ 26.9 µg/mL) | 180 (≈ 79.3 µg/mL) | 
COc1ccc(CNC(=O)c2nc(-c3cncc(C)c3)ncc2-c2ccccc2)nc1OC | 11 | 23000 | 120 | > 10000 |  | > 83 | 47 |  |  |  |  |  |  | 
COc1ccc(CNC(=O)c2cc(-c3cncc(C)c3)ncc2-c2cccc(F)c2)nc1OC |  | 4000 | 16 | 1950 | 4440 | 122 | 18 |  |  |  |  |  |  | 
COc1ccc(CNC(=O)c2sc(-c3cncc(C)c3)nc2-c2cccc(F)c2)nc1OC | 140 | 12000 | 1060 | > 10000 | 86 | > 9 |  |  |  |  |  |  |  | 
COc1ccc(CNC(=O)c2nc(-c3cncc(C)c3)ccc2-c2ccccc2)nc1OC | 43 | 2400 |  |  | 56 |  | 28 |  |  |  |  |  |  | 
COc1ccc(CNC(=O)c2cc(-c3cncc(C)c3)ncc2-c2cnn(C)c2)nc1OC | 4.1 | 930 | 167 | 10000 | 227 | > 60 |  |  |  |  |  |  |  | 
COc1ccc(CNC(=O)c2cc(-c3cncc(C)c3)ncc2-c2cncc(F)c2)nc1OC | 5.2 | 17000 | 57 | 10000 | 3270 | 192 | 19 |  |  |  |  |  |  | 
COc1ccc(CNC(=O)c2cc(-c3cncc(C)c3)ncc2N2CCOCC2)nc1OC | 75 | 1500 | 3500 | 10000 | 20 | > 3 | 15 |  |  |  |  |  |  | 
COc1ccc(CNC(=O)c2cc(-c3cncc(C)c3)ncc2N2CCCC2)nc1OC | 4.5 | 14000 | 37 | 10000 | 3110 | > 270 |  |  |  |  |  |  |  | 
COc1ccc(CNC(=O)c2nc(-c3cncc(C)c3)cnc2-c2ccccc2)nc1OC |  | 8500 | 31 | > 20000 | 6070 | > 645 | 37 |  |  |  |  |  |  | 
COc1ccc(CNC(=O)c2cc(-c3cncc(C)c3)ccc2-c2ccccc2)nc1OC | 0.3 | 1000 | 14 | 1540 | 3330 | 110 | 51 |  |  |  |  |  |  | 
COc1ccc(CNC(=O)c2cc(-c3cncc(C)c3)ncc2-c2cnccn2)nc1OC | 7.6 | 31000 | 109 | 10000 | 4080 | > 92 | 24 |  |  |  |  |  |  | 
COc1ccc(CNC(=O)c2cc(-c3cncc(C)c3)ncc2-c2ccccn2)nc1OC | 1.4 | 7900 | 36 | 4650 | 5640 | 129 |  |  |  |  |  |  |  | 
COc1ccc(CNC(=O)c2cc(-c3cncc(Cl)c3)cnc2-c2ccccc2)nc1OC |  |  |  |  |  |  |  |  |  |  | 100 | 10 (≈ 4.61 µg/mL) | 16 (≈ 7.37 µg/mL) | 
COc1ccc(CNC(=O)c2cc(-c3cncc(C)c3)ncc2-c2ccccc2)nc1OC | 0.5 | 2700 | 21 | 2800 | 5400 | 133 | 15 | 0.000217 | 5600 | 217 |  |  |  | Stable
COc1ccc(CNC(=O)c2cc(-c3cncc(C)c3)ncc2-c2ccnnc2)nc1OC | 193 | 39000 | 1450 | 15000 | 202 | > 10 |  |  |  |  |  |  |  | 
